The numbers were not newly measured in US7414057B2, “Piperazine urea derivatives as melanocortin-4 receptor agonists” (Merck & Co., Inc., priority 2002, dated 2008), which cites them from elsewhere.

For this series the following is noted: injected intramuscularly or subcutaneously to males with psychogenic erectile dysfunction.

For “Ac-Nle-c[Asp-His-DPhe-Arg-Trp-Lys]-NH2 [melanotan-II]”, the response rate is recorded as 75%.
